Data taken from US7041486B1, “Enzyme having decolorizing activity and method for decolorizing dyes by using the same” (Meiji Seika Kaisha Ltd., priority 1999, dated 2006).
“Also recorded” adds a separate entry of the source. Where two headings read alike, the source gives them in different places.

Columns and labels:
DyP [1] = assay: Assay of dye-degrading (decolorizing) activity of purified DyP; type: biochemical, Geotrichum candidum Dec 1; details: dyes of Table 1
Experimental: The dye-degrading spectrum of the purified DyP was examined for nine types of dyes and three model compounds. The activity of the purified DyP to degrade these dyes or model compounds was assayed by measuring the degradation rates.
As the dyes, use was made of Reactive blue 5, 19 and 114; AQ-1 and AQ-2; Reactive black 5, Reactive red 33, Reactive yellow 2, and Reactive blue 182.
The dye-degrading activity was measured as follows.
0.2 to 0.4 mM aqueous hydrogen peroxide was added to a mixture solution of 3 mL of 25 mM citrate buffer (adjusted to the optimum pH for the degradation of each of the dyes) containing each dye at a fixed […] (30 to 120 ppm) and 1 mL of 1.86 nM DyP solution, to initiate the enzyme reaction. Reaction was performed at 30° C. for a fixed period of time, to assay the reaction rate.
1 U of the dye-degrading activity was defined as the activity to decolorize 1 μmole Reactive blue 5 or AQ-2 for one minute.

DyP [2] = type: biochemical, Geotrichum candidum Dec 1; details: for Specific activity (%): 100 ppm Reactive blue 5, no addition = 100
From the text: […], zinc, copper (divalent), potassium, iron (divalent) and sodium were concurrently present in a reaction solution comprising DyP and 100 ppm Reactive blue 5, so as to examine the effects of these metal ions on the relative activity of the DyP enzyme.

DyP [3] = assay: Oxidation of model compounds by DyP (absorbance); type: biochemical, Geotrichum candidum Dec 1; details: for Oxidation rate: 2.79 nM DyP, 0.2 mM hydrogen peroxide, 25 mM citrate buffer, pH and initial concentration (mM) as in columns c2, c3, 470 nm or 465 nm; for Degradation by DyP (in words): model compounds of Table 2
Experimental: As the model compounds, additionally, use was made of 2,6-dimethoxyphenol, guaiacol and veratryl alcohol.
As to 2,6-dimethoxyphenol used as a model compound, alternatively, absorbance at 470 nm was calorimetrically measured, which emerged via oxidation.
That is to say, a mixture solution of 2.79 nM DyP and 0.2 mM 2,6-dimethoxyphenol was reacted with 25 mM citrate buffer (pH 4.5) containing 0.2 mM hydrogen peroxide.
As to guaiacol, 1 mM guaiacol was used in place of 0.2 mM 2,6-dimethoxyphenol, for absorbance measurement at 465 nm.

Isoelectric focusing = type: physicochemical; details: FIG. 2
Experimental: Then, the isoelectric point of the inventive enzyme was measured. The isoelectric point was measured by isoelectric focusing.
For measurement of isoelectric focusing, a low-pI calibration kit of Multiphor II 2-D for pH 2.5 to pH 6.5, manufactured by Pharmacia, Co. was used. Consequently, the isoelectric point of DyP was assayed as 3.8.

[4] = Temperature stability of peroxidase (remaining activity after storage); type: physicochemical; details: 25 mM citrate buffer
Experimental: After the inventive dye-degrading enzyme DyP was stored at a fixed temperature for a fixed period of time, the ratio of the remaining activity was subsequently evaluated. Specifically, a solution of the dye-degrading enzyme DyP in 25 mM citrate buffer was stored at 30° C. or 40° C. for 14 days.
So as to compare the temperature stability with those of other peroxidases, solutions of individual enzymes in 25 mM citrate buffer were stored at 60° C. for 3 hours, by using a commercially available horse-radish peroxidase (manufactured by Wako Chemical Co., Ltd.; sometimes abbreviated as HRP hereinafter) as the control. Subsequently, the remaining enzyme activities were compared to each other.

With `Nc1c(S(=O)(=O)[O-])cc(Nc2ccc(S(=O)(=O)[O-])c(Nc3nc(Cl)nc(Nc4cccc(S(=O)(=O)[O-])c4)n3)c2)c2c1C(=O)c1ccccc1C2=O.[Na+].[Na+].[Na+]` [Reactive blue 5] the “Degradation by DyP (in words)” value (DyP [1]) was “excellent degradation activity”.

For `Nc1c(S(=O)(=O)[O-])cc(Nc2cccc(S(=O)(=O)CCOS(=O)(=O)[O-])c2)c2c1C(=O)c1ccccc1C2=O.[Na+].[Na+]` [Reactive blue 19], the “Degradation by DyP (in words)” value (DyP [1]) was “excellent degradation activity”.

In the case of `CNc1cc(S(=O)(=O)[O-])c(N)c2c1C(=O)c1ccccc1C2=O.[Na+]` [AQ-2, 1-amino-4-methylamino-2-sodium-anthraquinone sulfonate], the “Degradation by DyP (in words)” value (DyP [1]) is reported as “excellent degradation activity”.

With `[Fe+2]` [Fe^++, iron (divalent)] the “Inhibition of DyP activity” value (DyP [2]; ion concurrently present at 0.2 mM) was 50% and the “Specific activity (%)” value (DyP [2]; metal ion 0.2 mM) was 50%.

In the case of `[Na+]` [Na^+, sodium], the “Specific activity (%)” value (DyP [2]; metal ion 5 mM) is reported as 81%.

For Reactive blue 182, the “Degradation by DyP (in words)” value (DyP [1]) was “efficiently degraded”.

For `COc1ccccc1O` [Guaiacol, guaiacol], the Oxidation rate (DyP [3]) was 0.29 ΔOD/min and the “Degradation by DyP (in words)” value (DyP [3]) was “could efficiently be degraded”.

In the case of `[K+]` [K^+, potassium], the “Specific activity (%)” value (DyP [2]; metal ion 5 mM) is reported as 81%.

In the case of `[Zn+2]` [Zn^++, zinc], the “Specific activity (%)” value (DyP [2]; metal ion 5 mM) is reported as 69%.

With `[Cu+2]` [Cu^++, copper (divalent)] the “Specific activity (%)” value (DyP [2]; metal ion 5 mM) was 75%.

With `COc1ccc(CO)cc1OC` [Veratryl alcohol, veratryl alcohol] the “Degradation by DyP (in words)” value (DyP [3]) was “could never degrade; also recorded: no reaction”.

With `[Ca+2]` [Ca^++, calcium] the “Specific activity (%)” value (DyP [2]; metal ion 5 mM) was 81%.

For `COc1cccc(OC)c1O` [2,6-Dimethoxyphenol, 2,6-dimethoxyphenol], the Oxidation rate (DyP [3]) was 0.29 ΔOD/min and the “Degradation by DyP (in words)” value (DyP [3]) was “could efficiently be degraded”.

B1: DyP: peroxidase derived from Geotrichum candidum Dec 1 strain (FERM BP-7033), amino acid sequence SEQ ID NO. 7 (protein, listed as Geotrichum candidum)
chain: MDLSLFVVSVAVLVGSSSHVNAAKLGARQTRTTPLLTNFPGQAPLPTLTQHTTESGANDTILPLNNIQGDILVGMKKQKERFVFFQVNDATSFKTALKTYVPQRITSAAILISDPSQQPLAFVNLGFSNTGLQALGITDDLGDAQFPDGQFADAANLGDDLSQWVAPFTGTTIHGVFLIGSDQDDFLDQFTDDISSTFGSSITQVQALSGSARPGDQAGHEHFGFLDGISQPSVTGWETTVFPGQAVVPPGIILTGRDGDTGTRPSWALDGSFMAFRHFQQKVPEFNAYTLANAIPANSAGNLTQQEGAEFLGARMFGRWKSGAPIDLAPTADDPALGADPQRNNNFDYSDTLTDETRCPFGAHVRKTNPRQDLGGPVDTFHAMRSSIPYGPETSDAELASGVTAQDRGLLFVEYQSIIGNGFRFQQINWANNANFPFSKPITPGIEPIIGQTTPRTVGGLDPLNQNETFTVPLFVIPKGGEYFFLPSISALTATIAA
For B1, the “Isoelectric point (pI)” value (Isoelectric focusing) was 3.8, the Remaining enzyme activity ([4]; stored at 30° C. for 14 days) was 63% and the Remaining enzyme activity ([4]; stored at 40° C. for 14 days) was 41%. The Remaining enzyme activity ([4]; stored at 60° C. for 3 hours) was 65%.
